Source: patent publication US7189351B2, “D-tagatose as an anti-biofilm agent” (priority 2001, dated 2007)

Assays:
[1] = system: F. nucleatum PK1594 and P. gingivalis PK1924; assay: phase-contrast photomicrographs of coaggregation; type: cell-based, Fusobacterium nucleatum; Porphyromonas gingivalis
[2] = system: coaggregating pairs of oral isolates (early and late colonizers); assay: reversal of coaggregation among fifteen oral isolates (overall); type: cell-based, bacterial strains of human gingival crevice origin
Procedure: (§1) Fifteen oral isolates, including both early colonizers (Streptococcus and Actinomyces) and late colonizers (Fusobacterium, Porphyromonas, Prevotella, Veillonella, Capnocytophaga, and Actinobacillus), were tested for their ability to coaggregate with each other, followed by testing for the reversal of coaggregation by the addition of D-tagatose. Bacterial strains used were of human gingival crevice origin. The coaggregation was examined visually by a scoring system ranging from 0 for no visible coaggregation to 4 for maximum coaggregation [Cisar J. O., Kolenbrander P. E., and McIntire F. C., “Specificity of coaggregation reactions between human oral streptococci and strains of Actinomyces viscosus or Actinomyces naeslundii”, Infect. Immun., 24:742–752. 1979]. D-Tagatose, at a concentration of less than 750 mM, completely reversed the coaggregation of 17 (60%) of 28 strong coaggregating pairs (with a coaggregation score of 2 or higher) tested. […] These D-tagatose sensitive coaggregations were D-galactose reversible as well.
(§2) Pairs of various species of oral bacteria were tested for coaggregation, and for reversal of coaggregation when D-tagatose or D-galactose was administered.

[3] = system: Actinomyces naeslundii PK947/Streptococcus oralis SO34; assay: reversal of coaggregation, visual score; type: cell-based; set-up: key to reversal of coaggregation: *: Coaggregations were reversed by both D-galactose and D-tagatose; conditions: for coaggregation score: pair PK947/SO34, water score 3, scale 0 no visible to 4 maximum coaggregation; for reversal of coaggregation: pair SO34/PK947, coaggregation score 3 without sugar
Procedure: as §1, §2

[4] = system: Actinomyces naeslundii PK29/Streptococcus mitis J22; assay: reversal of coaggregation, visual score; type: cell-based; set-up: key to reversal of coaggregation: *: Coaggregations were reversed by both D-galactose and D-tagatose; conditions: for reversal of coaggregation: pair J22/PK29, coaggregation score 4 without sugar; for coaggregation score: pair PK29/J22, water score 4, scale 0 no visible to 4 maximum coaggregation
Procedure: as §1, §2

[5] = system: Actinomyces naeslundii PK947/Streptococcus oralis C104; assay: reversal of coaggregation, visual score; type: cell-based; set-up: key to reversal of coaggregation: *: Coaggregations were reversed by both D-galactose and D-tagatose; conditions: for reversal of coaggregation: pair Cl04/PK947, coaggregation score 2 without sugar; for coaggregation score: pair PK947/C104, water score 2, scale 0 no visible to 4 maximum coaggregation
Procedure: as §1, §2

[6] = system: Actinomyces naeslundii PK29/Streptococcus morbillorum PK509; assay: reversal of coaggregation, visual score; type: cell-based; set-up: key to reversal of coaggregation: *: Coaggregations were reversed by both D-galactose and D-tagatose; conditions: for coaggregation score: pair PK29/PK509, water score 2, scale 0 no visible to 4 maximum coaggregation; for reversal of coaggregation: pair PK509/PK29, coaggregation score 2 without sugar
Procedure: as §1, §2

[7] = system: Actinomyces naeslundii PK947/Streptococcus mitis J22; assay: reversal of coaggregation, visual score; type: cell-based; set-up: key to reversal of coaggregation: *: Coaggregations were reversed by both D-galactose and D-tagatose; conditions: for reversal of coaggregation: pair J22/PK947, coaggregation score 2 without sugar; for coaggregation score: pair PK947/J22, water score 2, scale 0 no visible to 4 maximum coaggregation
Procedure: as §1, §2

[8] = system: Streptococcus morbillorum PK509/Streptococcus oralis C104; assay: reversal of coaggregation, visual score; type: cell-based; set-up: key to coaggregation score without sugar: *: Coaggregations were reversed by both D-galactose and D-tagatose; conditions: for coaggregation score without sugar: pair Cl04/PK509, coaggregation score 3 without sugar; for coaggregation score: pair PK509/C104, water score 3, scale 0 no visible to 4 maximum coaggregation
Procedure: as §1, §2

[9] = system: Fusobacterium nucleatum PK1594/Veillonella atypica PK1910; assay: reversal of coaggregation, visual score; type: cell-based; set-up: key to coaggregation score without sugar: *: Coaggregations were reversed by both D-galactose and D-tagatose; conditions: pair PK1594/PK1910; for coaggregation score without sugar: coaggregation score 3 without sugar; for coaggregation score: water score 3, scale 0 no visible to 4 maximum coaggregation
Procedure: as §1, §2

[10] = system: Veillonella atypica PK1910/Streptococcus oralis C104; assay: reversal of coaggregation, visual score; type: cell-based; set-up: key to coaggregation score without sugar: *: Coaggregations were reversed by both D-galactose and D-tagatose; conditions: for coaggregation score without sugar: pair Cl04/PK1910, coaggregation score 3 without sugar; for coaggregation score: pair PK1910/C104, water score 3, scale 0 no visible to 4 maximum coaggregation
Procedure: as §1, §2

[11] = system: Fusobacterium nucleatum PK1594/Actinobacillus actinomycetemcomitans JP2; assay: reversal of coaggregation, visual score; type: cell-based; set-up: key to coaggregation score without sugar: *: Coaggregations were reversed by both D-galactose and D-tagatose; conditions: pair PK1594/JP2; for coaggregation score without sugar: coaggregation score 3 without sugar; for coaggregation score: water score 3, scale 0 no visible to 4 maximum coaggregation
Procedure: as §1, §2

[12] = system: Actinomyces naeslundii PK29/Streptococcus oralis SO34; assay: reversal of coaggregation, visual score; type: cell-based; set-up: key to coaggregation score without sugar: *: Coaggregations were reversed by both D-galactose and D-tagatose; conditions: for coaggregation score: pair PK29/SO34, water score 4, scale 0 no visible to 4 maximum coaggregation; for coaggregation score without sugar: pair SO34/PK29, coaggregation score 4 without sugar
Procedure: as §1, §2

[13] = system: Prevotella loescheii PK1295/Streptococcus mitis J22; assay: reversal of coaggregation, visual score; type: cell-based; set-up: key to coaggregation score without sugar: *: Coaggregations were reversed by both D-galactose and D-tagatose; conditions: for coaggregation score without sugar: pair J22/PK1295, coaggregation score 3 without sugar; for coaggregation score: pair PK1295/J22, water score 4, scale 0 no visible to 4 maximum coaggregation
Procedure: as §1, §2

[14] = system: Streptococcus morbillorum PK509/Streptococcus oralis SO34; assay: reversal of coaggregation, visual score; type: cell-based; set-up: key to coaggregation score without sugar: *: Coaggregations were reversed by both D-galactose and D-tagatose; conditions: for coaggregation score: pair PK509/SO34, water score 2, scale 0 no visible to 4 maximum coaggregation; for coaggregation score without sugar: pair SO34/PK509, coaggregation score 2 without sugar
Procedure: as §1, §2

[15] = system: Streptococcus morbillorum PK509/Veillonella atypica PK1910; assay: reversal of coaggregation, visual score; type: cell-based; set-up: key to coaggregation score without sugar: *: Coaggregations were reversed by both D-galactose and D-tagatose; conditions: pair PK509/PK1910; for coaggregation score without sugar: coaggregation score 2 without sugar; for coaggregation score: water score 2, scale 0 no visible to 4 maximum coaggregation
Procedure: as §1, §2

[16] = system: Streptococcus morbillorum PK509/Prevotella loescheii PK1295; assay: reversal of coaggregation, visual score; type: cell-based; set-up: key to coaggregation score without sugar: *: Coaggregations were reversed by both D-galactose and D-tagatose; conditions: pair PK509/PK1295; for coaggregation score without sugar: coaggregation score 2 without sugar; for coaggregation score: water score 2, scale 0 no visible to 4 maximum coaggregation
Procedure: as §1, §2

[17] = system: Veillonella atypica PK1910/Streptococcus oralis SO34; assay: reversal of coaggregation, visual score; type: cell-based; set-up: key to coaggregation score without sugar: *: Coaggregations were reversed by both D-galactose and D-tagatose; conditions: for coaggregation score: pair PK1910/SO34, water score 3, scale 0 no visible to 4 maximum coaggregation; for coaggregation score without sugar: pair SO34/PK1910, coaggregation score 3 without sugar
Procedure: as §1, §2

[18] = system: Fusobacterium nucleatum PK1594/Porphyromonas gingivalis PK1924; assay: reversal of coaggregation, visual score; type: cell-based; set-up: key to coaggregation score without sugar: *: Coaggregations were reversed by both D-galactose and D-tagatose; conditions: pair PK1594/PK1924; for coaggregation score without sugar: coaggregation score 4 without sugar; for coaggregation score: water score 4, scale 0 no visible to 4 maximum coaggregation
Procedure: as §1, §2

In the case of `O=C[C@H](O)[C@@H](O)[C@@H](O)[C@H](O)CO` [D-Galactose], the “dissociation of coaggregate clumps” value ([1]; 143 mM final concentration) is reported as “dissociates clumps into individual cells”, the “reversibility of the D-tagatose sensitive coaggregations” value [2] is reported as “reversible” and the coaggregation score ([3]; sugar 143 mM) is reported as 0. The reversal of coaggregation [3] was 3*, the reversal of coaggregation [4] was 4* and the coaggregation score ([4]; sugar 143 mM) was 1. The reversal of coaggregation [5] was 2*, the coaggregation score ([5]; sugar 143 mM) was 0 and the coaggregation score ([6]; sugar 143 mM) was 0. For the same compound, the reversal of coaggregation [6] was 2*, the reversal of coaggregation [7] was 2* and the coaggregation score ([7]; sugar 143 mM) was 0. For the same compound, the “coaggregation score without sugar” value [8] was 3*, the coaggregation score ([8]; sugar 143 mM) was 0 and the “coaggregation score without sugar” value [9] was 3*. For the same compound, the coaggregation score ([9]; sugar 143 mM) was 0, the “coaggregation score without sugar” value [10] was 3* and the coaggregation score ([10]; sugar 143 mM) was 0. For the same compound, the “coaggregation score without sugar” value [11] was 3*, the coaggregation score ([11]; sugar 143 mM) was 1 and the coaggregation score ([12]; sugar 143 mM) was 1. The “coaggregation score without sugar” value [12] was 4*, the “coaggregation score without sugar” value [13] was 3* and the coaggregation score ([13]; sugar 143 mM) was 0. The coaggregation score ([14]; sugar 143 mM) was 0, the “coaggregation score without sugar” value [14] was 2* and the “coaggregation score without sugar” value [15] was 2*. The coaggregation score ([15]; sugar 143 mM) was 0, the “coaggregation score without sugar” value [16] was 2* and the coaggregation score ([16]; sugar 143 mM) was 0. For the same compound, the coaggregation score ([17]; sugar 143 mM) was 1, the “coaggregation score without sugar” value [17] was 3* and the “coaggregation score without sugar” value [18] was 4*. For the same compound, the coaggregation score ([18]; sugar 143 mM) was 0.
`O=C(CO)[C@@H](O)[C@@H](O)[C@H](O)CO` [D-Tagatose] was tested, and the “dissociation of coaggregate clumps” value ([1]; 400 mM final concentration) was “dissociates the clumps into individual cells”, the “plaque reversibility, comparison of Table 2” value ([2]; D-tagatose and D-sorbitol at somewhat higher concentrations than D-galactose) was “virtually equal to that of D-galactose” and the “share of strong coaggregating pairs whose coaggregation was completely reversed” value ([2]; concentration of less than 750 mM, 28 strong coaggregating pairs tested) was 60%. The “number of strong coaggregating pairs whose coaggregation was completely reversed” value ([2]; concentration of less than 750 mM, of 28 strong coaggregating pairs (score of 2 or higher) tested) was 17, the colonizers acted on ([2]; late colonizers were gram-negative anaerobes) was “acted on both early colonizers and late colonizers” and the coaggregation score ([3]; sugar 200 mM) was 0. The reversal of coaggregation [3] was 3*, the reversal of coaggregation [4] was 4* and the coaggregation score ([4]; sugar 750 mM) was 1. For the same compound, the reversal of coaggregation [5] was 2*, the coaggregation score ([5]; sugar 200 mM) was 0 and the coaggregation score ([6]; sugar 200 mM) was 0. The reversal of coaggregation [6] was 2*, the reversal of coaggregation [7] was 2* and the coaggregation score ([7]; sugar 200 mM) was 0. The “coaggregation score without sugar” value [8] was 3*, the coaggregation score ([8]; sugar 750 mM) was 1 and the “coaggregation score without sugar” value [9] was 3*. For the same compound, the coaggregation score ([9]; sugar 200 mM) was 0, the “coaggregation score without sugar” value [10] was 3* and the coaggregation score ([10]; sugar 200 mM) was 1. For the same compound, the “coaggregation score without sugar” value [11] was 3*, the coaggregation score ([11]; sugar 600 mM) was 0 and the coaggregation score ([12]; sugar 750 mM) was 1. The “coaggregation score without sugar” value [12] was 4*, the “coaggregation score without sugar” value [13] was 3* and the coaggregation score ([13]; sugar 750 mM) was 2. For the same compound, the coaggregation score ([14]; sugar 400 mM) was 1, the “coaggregation score without sugar” value [14] was 2* and the “coaggregation score without sugar” value [15] was 2*. The coaggregation score ([15]; sugar 400 mM) was 0, the “coaggregation score without sugar” value [16] was 2* and the coaggregation score ([16]; sugar 600 mM) was 0. The coaggregation score ([17]; sugar 200 mM) was 1, the “coaggregation score without sugar” value [17] was 3* and the “coaggregation score without sugar” value [18] was 4*. The coaggregation score ([18]; sugar 400 mM) was 0.
